Tests used:
[1] = test system: rat; conditions: Prenatal developmental toxicity study, sprague dawley, Oral, Gavage/Intubation, dose end: 17 GD
[2] = test system: rabbit; conditions: Prenatal developmental toxicity study, new zealand white, Oral, Gavage/Intubation, dose end: 18 GD
[3] = test system: dog; conditions: Chronic toxicity, beagle, Oral, Feed, dose end: 24 month
[4] = test system: rat; conditions: Subchronic oral toxicity in rodents, sprague dawley, Feed, dose end: 6 month
[5] = test system: rat; conditions: Combined chronic toxicity/carcinogenicity, fischer, Oral, Feed, dose end: 104 week
[6] = test system: rat; conditions: Multigenerational reproductive toxicity study, wistar, Oral, Feed, dose end: 2 generation
[7] = test system: rat; conditions: Multigenerational reproductive toxicity study, sprague dawley, Oral, Feed, dose end: 2 generation
[8] = test system: rabbit; conditions: Prenatal developmental toxicity study, himalayan, Oral, Gavage/Intubation, dose end: 28 GD
[9] = test system: rat; conditions: Prenatal developmental toxicity study, sprague dawley, Oral, Gavage/Intubation, dose end: 20 GD
[10] = test system: rat; conditions: Multigenerational reproductive toxicity study, sprague dawley, Oral, Feed, dose end: 2 generation, systemic / hematology / erythrocyte (rbc) count differential / erythrocyte (rbc) + systemic / hematology / hematocrit (hct) / hematocrit (…
[11] = test system: rabbit; conditions: Prenatal developmental toxicity study, new zealand white, Oral, Water, dose end: 19 GD
[12] = test system: rabbit; conditions: Prenatal developmental toxicity study, himalayan, Oral, Gavage/Intubation, dose end: 28 GD; remark: listed apart in the source
[13] = test system: rat; conditions: Multigenerational reproductive toxicity study, wistar, Oral, Feed, dose end: 2 generation; remark: listed apart in the source
[14] = test system: rat; conditions: Prenatal developmental toxicity study, wistar, Oral, Gavage/Intubation, dose end: 19 GD
[15] = test system: rat; conditions: Subchronic oral toxicity in rodents, sprague dawley, Gavage/Intubation, dose end: 19 GD
[16] = group: developmental, developmental / developmental malformation / bone / incomplete ossification + systemic / in life observation / body weight / fetal weight
[17] = group: maternal, systemic / in life observation / body weight / body weight gain + systemic / in life observation / clinical signs / alopecia + systemic / in…
[18] = group: developmental, developmental / developmental malformation / bone / incomplete ossification + developmental / developmental malformation / bone / short + …
[19] = group: maternal, reproductive / reproductive performance / resorptions / resorptions + systemic / in life observation / body weight / body weight + systemic…
[20] = group: cholinesterase, cholinesterase / cholinesterase / cholinesterase / erythrocyte cholinesterase (che)
[21] = group: cholinesterase, cholinesterase / cholinesterase / cholinesterase / plasma cholinesterase (che)
[22] = group: systemic, systemic / organ weight / liver / absolute + systemic / organ weight / liver / relative to body weight
[23] = group: cholinesterase, cholinesterase / cholinesterase / cholinesterase / erythrocyte cholinesterase (che) + cholinesterase / cholinesterase / cholinesterase / …
[24] = group: systemic, systemic / clinical chemistry / alanine aminotransferase (alt/sgpt) / alanine aminotransferase (alt/sgpt)
[25] = group: cholinesterase, cholinesterase / cholinesterase / cholinesterase / brain cholinesterase (che) + cholinesterase / cholinesterase / cholinesterase / plasma …
[26] = group: systemic, systemic / clinical chemistry / cholesterol / cholesterol + systemic / hematology / erythrocyte (rbc) count differential / erythrocyte (rbc…
[27] = group: maternal, reproductive / reproductive performance / fertility / fertility + reproductive / reproductive performance / precoital interval / precoital …
[28] = group: offspring, developmental / offspring survival late / viability index / viability index
[29] = group: offspring, developmental / offspring survival late / viability index / viability index + reproductive / offspring survival early / dead fetuses / dead …
[30] = group: parental, systemic / in life observation / body weight / body weight + systemic / in life observation / body weight / body weight gain + systemic / in…
[31] = group: reproductive, reproductive / reproductive performance / gestational length / gestational length + reproductive / reproductive performance / gestation …
[32] = group: offspring, systemic / in life observation / body weight / offspring (pup) weight + systemic / in life observation / body weight / offspring (pup) …
[33] = group: parental, systemic / organ weight / kidney / absolute + systemic / organ weight / kidney / relative to body weight + systemic / pathology microscopic…
[34] = group: developmental, developmental / developmental malformation / general / crown-rump length + systemic / in life observation / body weight / fetal weight
[35] = group: maternal, reproductive / reproductive performance / premature delivery / premature delivery + systemic / in life observation / body weight / body …
[36] = group: developmental, developmental / developmental malformation / bone / [other] + developmental / developmental malformation / bone / delayed ossification + …
[37] = group: maternal, systemic / in life observation / body weight / body weight gain
[38] = group: developmental, developmental / developmental malformation / other / other + systemic / in life observation / body weight / fetal weight
[39] = group: maternal, systemic / in life observation / clinical signs / defecation + systemic / in life observation / food consumption / food consumption + …
[40] = group: developmental, developmental / developmental malformation / liver / [other]
[41] = group: maternal, reproductive / reproductive performance / aborted / aborted + systemic / in life observation / body weight / body weight gain + systemic / …
[42] = group: parental, systemic / in life observation / body weight / body weight gain
[43] = group: developmental, developmental / developmental malformation / aortic arch / narrowed + developmental / developmental malformation / bone / [other] + …
[44] = group: developmental, developmental / developmental malformation / bone / incomplete ossification + developmental / developmental malformation / bone / wavy + …
[45] = group: maternal, systemic / in life observation / body weight / body weight + systemic / in life observation / body weight / body weight gain + systemic / in…
[46] = group: developmental, developmental / developmental malformation / bone / ossification sites + developmental / developmental malformation / bone / supernumerary
[47] = group: systemic, systemic / in life observation / body weight / body weight + systemic / in life observation / body weight / body weight gain + systemic / in…

`Cc1cccc(C)c1NC(=O)c1ccc(N)cc1` [Ameltolide] was tested, and the LEL [1, 16] was 50 mg/kg/day, the LOAEL [1, 16] was > 50 mg/kg/day and the NEL [1, 16] was 25 mg/kg/day. For the same compound, the NOAEL [1, 16] was ≥ 50 mg/kg/day, the LEL [1, 17] was 50 mg/kg/day and the LOAEL [1, 17] was > 50 mg/kg/day. The NEL [1, 17] was 25 mg/kg/day, the NOAEL [1, 17] was ≥ 50 mg/kg/day and the LEL [2, 18] was 100 mg/kg/day. For the same compound, the LOAEL [2, 18] was > 100 mg/kg/day, the NEL [2, 18] was 50 mg/kg/day and the NOAEL [2, 18] was ≥ 100 mg/kg/day. The LEL [2, 19] was 100 mg/kg/day, the LOAEL [2, 19] was > 100 mg/kg/day and the NEL [2, 19] was 50 mg/kg/day. For the same compound, the NOAEL [2, 19] was ≥ 100 mg/kg/day.

For `CCOP(=S)(OCC)Oc1nc(Cl)c(Cl)cc1Cl` [Chlorpyrifos], the LEL [3, 20] was 0.01 mg/kg/day, the NEL [3, 20] was < 0.01 mg/kg/day and the LOAEL [3, 21] was 0.03 mg/kg/day. The NOAEL ([3]; group: cholinesterase, cholinesterase / cholinesterase / cholinesterase / plasma cholinesterase (che) + cholinesterase / cholinesterase / cholinesterase / …) was 0.01 mg/kg/day, the LEL [3, 22] was 3 mg/kg/day and the LOAEL [3, 22] was > 3 mg/kg/day. The NEL [3, 22] was 1 mg/kg/day, the NOAEL [3, 22] was ≥ 3 mg/kg/day and the LEL [4, 23] was 0.75 mg/kg/day. The LOAEL [4, 23] was 0.75 mg/kg/day, the NEL [4, 23] was 0.15 mg/kg/day and the NOAEL [4, 23] was 0.15 mg/kg/day. The LEL [4, 24] was 0.15 mg/kg/day, the LOAEL [4, 24] was > 0.75 mg/kg/day and the NEL [4, 24] was 0.03 mg/kg/day. The NOAEL [4, 24] was ≥ 0.75 mg/kg/day, the LOAEL [5, 25] was 1 mg/kg/day and the NEL [5, 25] was 0.05 mg/kg/day. It also gave an NOAEL [5, 25] of 0.1 mg/kg/day, an LEL [5, 21] of 0.1 mg/kg/day and an LEL ([5]; group: systemic, systemic / clinical chemistry / cholesterol / cholesterol + systemic / clinical chemistry / alkaline phosphatase (alp/alk) / alkaline …) of 1 mg/kg/day. For the same compound, the LOAEL [5, 26] was > 10 mg/kg/day, the NOAEL [5, 26] was ≥ 10 mg/kg/day and the NEL ([5]; group: systemic, systemic / clinical chemistry / cholesterol / cholesterol + systemic / in life observation / body weight / body weight + systemic / …) was 0.1 mg/kg/day.

With `Fc1ccc([C@@]2(Cn3cncn3)O[C@@H]2c2ccccc2Cl)cc1` [Epoxiconazole] the LEL [6, 27] was 22.1 mg/kg/day, the LOAEL [6, 27] was 22.1 mg/kg/day and the NEL [6, 27] was 2.17 mg/kg/day. The NOAEL [6, 27] was 2.17 mg/kg/day, the LEL [6, 28] was 0.85 mg/kg/day and the NEL [6, 28] was < 0.85 mg/kg/day. It also gave an LOAEL [6, 29] of 22.1 mg/kg/day, an NOAEL [6, 29] of 2.17 mg/kg/day and an LEL [6, 30] of 22.1 mg/kg/day. For the same compound, the LOAEL [6, 30] was 22.1 mg/kg/day, the NEL [6, 30] was 2.17 mg/kg/day and the NOAEL [6, 30] was 2.17 mg/kg/day. The LEL [6, 31] was 31.9 mg/kg/day, the LOAEL [6, 31] was 31.9 mg/kg/day and the NEL [6, 31] was 2.41 mg/kg/day. The NOAEL [6, 31] was 2.41 mg/kg/day.

For `O=C(NCc1ncc(C(F)(F)F)cc1Cl)c1c(Cl)cccc1Cl` [Fluopicolide], the LEL [7, 32] was 180 mg/kg/day, the LOAEL [7, 32] was 180 mg/kg/day and the NEL [7, 32] was 43.7 mg/kg/day. It also gave an NOAEL [7, 32] of 43.7 mg/kg/day, an LEL [7, 33] of 145 mg/kg/day and an LOAEL [7, 33] of 145 mg/kg/day. The NEL [7, 33] was 36.4 mg/kg/day, the NOAEL [7, 33] was 36.4 mg/kg/day and the LEL [8, 34] was 60 mg/kg/day. It also gave an LOAEL [8, 34] of 60 mg/kg/day, an NEL [8, 34] of 20 mg/kg/day and an NOAEL [8, 34] of 20 mg/kg/day. It also gave an LEL [8, 35] of 60 mg/kg/day, an LOAEL [8, 35] of 60 mg/kg/day and an NEL [8, 35] of 20 mg/kg/day. The NOAEL [8, 35] was 20 mg/kg/day, the LEL [9, 36] was 700 mg/kg/day and the LOAEL [9, 36] was 700 mg/kg/day. The NEL [9, 36] was 60 mg/kg/day, the NOAEL [9, 36] was 60 mg/kg/day and the LEL [9, 37] was 700 mg/kg/day. For the same compound, the LOAEL [9, 37] was 700 mg/kg/day, the NEL [9, 37] was 60 mg/kg/day and the NOAEL [9, 37] was 60 mg/kg/day.

For `O=C(Nc1ccc(F)cc1)c1cccc(Oc2cccc(C(F)(F)F)c2)n1` [Picolinafen], the LEL ([10]; group: offspring) was 21 mg/kg/day, the LOAEL ([10]; group: offspring) was > 43 mg/kg/day and the NEL ([10]; group: offspring) was 4.3 mg/kg/day. For the same compound, the NOAEL ([10]; group: offspring) was ≥ 43 mg/kg/day, the LEL ([10]; group: parental) was 19 mg/kg/day and the LOAEL ([10]; group: parental) was 19 mg/kg/day. It also gave an NEL ([10]; group: parental) of 3.7 mg/kg/day and an NOAEL ([10]; group: parental) of 3.7 mg/kg/day.

For `[Na+].[O-][Cl+][O-]` [Sodium chlorite], the LEL [11, 38] was 35.5 mg/kg/day, the LOAEL [11, 38] was 35.5 mg/kg/day and the NEL [11, 38] was 13 mg/kg/day. It also gave an NOAEL [11, 38] of 13 mg/kg/day, an LEL [11, 39] of 35.5 mg/kg/day and an LOAEL [11, 39] of 35.5 mg/kg/day. For the same compound, the NEL [11, 39] was 13 mg/kg/day and the NOAEL [11, 39] was 13 mg/kg/day.

For `CCOC(=O)OC1=C(c2cc(C)ccc2C)C(=O)NC12CCC(OC)CC2` (stereo not drawn) [Spirotetramat], the LEL [12, 40] was 160 mg/kg/day, the LOAEL [12, 40] was > 160 mg/kg/day and the NEL [12, 40] was 40 mg/kg/day. The NOAEL [12, 40] was ≥ 160 mg/kg/day, the LEL [12, 41] was 40 mg/kg/day and the LOAEL [12, 41] was 40 mg/kg/day. It also gave an NEL [12, 41] of 10 mg/kg/day, an NOAEL [12, 41] of 10 mg/kg/day and an LOAEL [13, 32] of 487 mg/kg/day. For the same compound, the NEL [13, 32] was 19.3 mg/kg/day, the NOAEL [13, 32] was 79.5 mg/kg/day and the LEL ([13]; group: offspring, systemic / in life observation / body weight / offspring (pup) weight gain) was 79.5 mg/kg/day. For the same compound, the LEL [13, 42] was 419 mg/kg/day, the LOAEL [13, 42] was 419 mg/kg/day and the NEL [13, 42] was 70.7 mg/kg/day. The NOAEL [13, 42] was 70.7 mg/kg/day, the LOAEL [14, 43] was 1000 mg/kg/day and the NOAEL [14, 43] was 140 mg/kg/day. The LEL [14, 44] was 20 mg/kg/day, the NEL [14, 44] was < 20 mg/kg/day and the LEL ([14]; group: maternal, systemic / in life observation / body weight / body weight) was 140 mg/kg/day. The LOAEL [14, 45] was 1000 mg/kg/day, the NEL [14, 45] was 20 mg/kg/day and the NOAEL [14, 45] was 140 mg/kg/day.

With `CC(=O)OC(C)(C)C` [tert-Butyl acetate] the LEL [15, 46] was 800 mg/kg/day, the LOAEL [15, 46] was > 1600 mg/kg/day and the NEL [15, 46] was 400 mg/kg/day. For the same compound, the NOAEL [15, 46] was ≥ 1600 mg/kg/day, the LEL [15, 47] was 1600 mg/kg/day and the LOAEL [15, 47] was > 1600 mg/kg/day. For the same compound, the NEL [15, 47] was 800 mg/kg/day and the NOAEL [15, 47] was ≥ 1600 mg/kg/day.

From EPA's ToxRefDB 2
